Measured values as given in PubChem BioAssay (NCI).
Several values for one entry are separate records, joined by “and”; a condition that tells them apart may be missing. Identical values can stand only once.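 Tested at 5 concentrations; 48 h exposure; 96-well plates; endpoints linearly interpolated, else capped at highest concentration. GI50: concentration for 50% inhibition of growth. The concentration for full growth arrest is given as TGI.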

Experiments:
Test in all cases: inhibition of tumour cell growth, NCI panel, 48 h
DU-145 prostate = tested on: DU-145 prostate
HCT-116 colon = tested on: HCT-116 colon
HOP-62 NSCLC = tested on: HOP-62 NSCLC
OVCAR-8 ovarian = tested on: OVCAR-8 ovarian
SF-295 CNS = tested on: SF-295 CNS
SNB-19 CNS = tested on: SNB-19 CNS
SNB-75 CNS = tested on: SNB-75 CNS
SW-620 colon = tested on: SW-620 colon
UACC-62 melanoma = tested on: UACC-62 melanoma
UO-31 renal = tested on: UO-31 renal

SMILES | TGI (DU-145 prostate) [µM] | TGI (HCT-116 colon) [µM] | TGI (HOP-62 NSCLC) | TGI (OVCAR-8 ovarian) [µM] | TGI (SF-295 CNS) | TGI (SNB-19 CNS) [µM] | TGI (SNB-75 CNS) | TGI (SW-620 colon) [µM] | TGI (UACC-62 melanoma) | TGI (UO-31 renal) | GI50 (DU-145 prostate) | GI50 (HCT-116 colon) | GI50 (HOP-62 NSCLC) | GI50 (OVCAR-8 ovarian) | GI50 (SF-295 CNS) | GI50 (SNB-19 CNS) | GI50 (SNB-75 CNS) | GI50 (SW-620 colon) | GI50 (UACC-62 melanoma) | GI50 (UO-31 renal)
COc1ccc(C(=O)c2cc(OC)c(OC)c(OC)c2)cc1 | 1.58 | > 25.8 | > 100 µM | 31.7 | 0.196 µM | > 32.7 | 0.988 µM | > 100 | > 9.77 µM | 61.9 µM |  |  |  |  |  |  |  |  |  | 
COc1ccc2[nH]c(=O)c3c4ccccc4cn3c2c1 | 3.63 | 1.38 | 0.885 µM | 3.29 | 1.71 µM | 9.33 | 9.47 µM | 1.39 | 1.4 µM | 4.73 µM | 0.604 µM | 0.351 µM | 0.228 µM | 1.09 µM | 0.393 µM | 0.95 µM | 0.366 µM | 0.319 µM | 0.345 µM | 0.689 µM
Nc1c(C(=O)c2cccc(CCCN3CCOCC3)c2)cnn1-c1ccc(F)cc1 | > 25 | > 25 | > 25 µM | > 25 | > 25 µM | > 25 | > 25 µM | > 25 | > 25 µM | > 25 µM | > 25 µM | > 25 µM | > 25 µM | > 25 µM | > 25 µM | > 25 µM | > 25 µM | > 25 µM | > 25 µM | > 25 µM
COC(=O)CCC(=O)C(=O)OC |  |  |  |  |  |  |  |  | 51100 µM | 85700 µM | 31700 µM | 30600 µM | 23700 µM | 63200 µM | 42000 µM | 34200 µM | 14800 µM | 53600 µM | 13600 µM | 15000 µM
COc1c(C=O)c2c(c(OC)c1OC)-c1ccc(OC)c(=O)cc1[C@@H](NC(C)=O)CC2 | > 100 | 1.05 | > 100 µM | > 14.4 | 0.449 µM | > 92.8 | > 100 µM | > 100 | > 92.3 µM | > 100 µM |  |  |  |  |  |  |  |  |  | 
CCOC(=O)c1ccc2[nH]c(-c3ccc(S(=O)(=O)F)cc3)cc(=O)c2c1 | > 100 | 76.9 | > 100 µM | > 100 | > 100 µM | > 100 | > 100 µM | > 100 | 76.2 µM | > 100 µM |  |  |  |  |  |  |  |  |  | 
CCOC(=O)c1c2c(c(O)c3ccccc3c(O)n(Cc3ccc(OC)cc3)c1C)C(=O)C=CC2=O | > 100 | > 100 | > 100 µM | > 100 | > 100 µM | > 100 | > 100 µM | > 100 | > 100 µM | > 100 µM | > 100 µM | > 100 µM | > 100 µM | > 100 µM | > 100 µM | > 100 µM | > 100 µM | > 100 µM | > 100 µM | > 100 µM
Cc1ccc([N+](=O)[O-])cc1NC(=O)Nc1cccc(F)c1 | 28.4 | > 100 | 43 µM | > 100 | 11 µM | 97.1 | 37.1 µM | > 100 | > 100 µM | 17.6 µM | 4.54 µM | 3.53 µM | 9.77 µM | 4.24 µM | 2.46 µM | 6.27 µM | 11.6 µM | 4.66 µM | 4.55 µM | 3.36 µM
C[C@@H]1COCCN1c1cc(C2([S@](C)(=N)=O)CC2)nc(-c2ccnc3[nH]ccc23)n1 | > 100 | > 87.5 | 52.1 µM and > 10 µM | > 84.5 | 32.9 µM and > 10 µM | > 100 | 20.3 µM and > 10 µM | > 100 | 16.6 µM and > 10 µM | 32.1 µM and > 10 µM | 3.1 µM and 3.64 µM | 4.67 µM and 4.53 µM | 2.86 µM and 1.75 µM | 6.65 µM and > 10 µM | 2.6 µM and 3.21 µM | 3.96 µM and 6.33 µM | 2.29 µM and 2.16 µM | 4.79 µM and > 10 µM | 2.34 µM and 1.76 µM | 2.95 µM and 2.04 µM
O=C1c2ccccc2-c2c1c1ccccc1c(=O)n2CCCCNCCCn1c2c(c3ccccc3c1=O)C(=O)c1ccccc1-2 | 1.12 | 0.688 | 1.42 µM | 1.5 | 2.33 µM | 10.4 | 28.3 µM | 0.528 | 3.22 µM | 7.23 µM | 0.379 µM | 0.00948 µM | 0.13 µM | 0.256 µM | 0.27 µM | 0.51 µM | 6.45 µM | 0.022 µM | 0.445 µM | 0.0557 µM
CCCCON(OC(=O)c1ccccc1)C(=O)c1ccccc1 | > 100 | > 100 | > 100 µM | > 100 | > 100 µM | > 100 | > 100 µM | > 100 | > 100 µM | > 100 µM | > 100 µM | > 100 µM | > 100 µM | > 100 µM | > 100 µM | > 100 µM | > 100 µM | > 100 µM | > 100 µM | > 100 µM
